Results as given in ChEMBL document CHEMBL3886917, “Benzimidazole-imidazole derivatives” (2016).

Legend:
[1] = Transient Transfection Assay: In a transient set-up, a Huh-7 lunet hepatoma cell line was transiently transfected with an autonomously replicating RNA encoding a bi-cistronic expression construct. This construct comprises a firefly luciferase reporter gene preceding the NS3-NS5B subgenomic region of HCV (genotype 1a H77 or 1b Con1). Translation of the HCV subgenomic region is mediated by an internal ribosome entry site of encephalomyocarditis virus. The construct is furthermore flanked by 5' and 3' untranslated regions of HCV (genotype 1a H77 or 1b Con 1, respectively), which allow for replication of the RNA. In addition to the wild-type constructs, site-directed mutations were introduced into the transient HCV genotype 1b replicon in the gene encoding for the non-structural protein 5A (NS5A). More precisely, amino acid residues 28, 30, 31 and 93 in NS5A were independently altered. Cells were plated in 384 well plates in the presence of test and control compounds, which were added in various concentrations. Following an incubation of two days, replication of the HCV subgenomic replicon RNA was measured by assaying luciferase activity (using standard luciferase assay substrates and reagents and a Perkin Elmer ViewLux™ ultraHTS microplate imager).; format: cell-based
[2] = Stable Transfection Assay: The assay utilized the stably transfected cell line Huh-7 luc/neo (hereafter referred to as Huh-Luc). This cell line harbors an RNA encoding a bicistronic expression construct comprising the wild type NS3-NS5B regions of HCV type 1b translated from an Internal Ribosome Entry Site (IRES) from encephalomyocarditis virus (EMCV), preceded by a reporter portion (FfL-luciferase), and a selectable marker portion (neoR, neomycine phosphotransferase). The construct is flanked by 5' and 3' NTRs (non-translated regions) from HCV type 1b. Continued culture of the replicon cells in the presence of G418 (neoR) is dependent on the replication of the HCV RNA. The stably transfected replicon cells that replicate HCV RNA autonomously and to high levels, encoding inter alia luciferase, were used for screening the antiviral compounds.

SMILES	EC50 [1]	EC50 [2]
COC(=O)N[C@H](C(=O)N1CCC[C@H]1c1ncc(-c2ccc3cc(-c4ccc5nc([C@@H]6CCCN6C(=O)[C@@H](NC(=O)OC)[C@@H](C)OC)[nH]c5c4)ccc3c2)[nH]1)C(C)C	7 pM	
COC(=O)N[C@H](C(=O)N1CCC[C@H]1c1nc2ccc(-c3ccc4cc(-c5cnc([C@@H]6CCCN6C(=O)[C@@H](NC(=O)OC)[C@@H](C)OC)[nH]5)ccc4c3)cc2[nH]1)C(C)C		6 pM
